These results are taken from ChEMBL document CHEMBL1137324, “Novel selective orally active CRTH2 antagonists for allergic inflammation developed from in silico derived hits” (J Med Chem, 2006).

For orientation: inhibition means the drop in the measured response relative to a control, in per cent. Higher therefore signals strong suppression. The term bioavailability denotes the share of a dose that reaches the circulation, judged against a reference dose that is usually intravenous. Low values mean little systemic uptake, high ones much systemic uptake. The term IC50 denotes the concentration that gives 50% inhibition. A higher IC50 goes with weaker potency.

SMILES strings stand for the structures.

Series [1] has as its target C5a anaphylatoxin chemotactic receptor 1 (Homo sapiens) (UniProt P21730). As to the kind of experiment: Inhibition of human C5a receptor at 10 uM.
Series [2] deals with Cholecystokinin receptor type A (Homo sapiens) (UniProt P32238). Nature of the series: Inhibition of human CCKA receptor at 10 uM.
The target in series [3] is Polyunsaturated fatty acid lipoxygenase ALOX15 (Homo sapiens) (UniProt P16050). Nature of the series: Inhibition of 15-LO at 10 uM.
The nature of series [4]: Bioavailability in rat. The series is classed as ADME, organism-based. Particulars: in vivo.
Series [5] has as its target Prostaglandin D2 receptor (Homo sapiens, UniProt Q13258). Nature of the series: Inhibition of DP1.
The target in series [6] is Sodium-dependent noradrenaline transporter (Homo sapiens) (UniProt P23975). As to the kind of experiment: Inhibition of human NE transporter at 10 uM.
Series [7] has as its target T1, GABA-A receptor; anion channel (Homo sapiens) (UniProt P14867+P47870+P18507+P28472+P48169+Q99928+Q9UN88+P34903+O00591+O14764+Q8N1C3+P18505+P78334+P47869+P31644+Q16445). As to the kind of experiment: Inhibition of central BZD receptor at 10 uM. The series is classed as protein-complex assay.
In series [8] the target is Vasopressin V1a receptor (Homo sapiens) (UniProt P37288). As to the kind of experiment: Inhibition of human V1a receptor at 10 uM.
The nature of series [9]: Inhibition of neuronal nicotinic receptor at 10 uM.
For series [10], the target named is D(1A) dopamine receptor (Homo sapiens) (UniProt P21728). As to the kind of experiment: Inhibition of human D1 receptor at 10 uM.
A further series is filed under the species Homo sapiens. As to the kind of experiment: Stability in human liver S9 fraction. The class given is ADME.
Series [11] has as its target Chemerin-like receptor 1 (Homo sapiens) (UniProt Q99788). As to the kind of experiment: Inhibition of ChemR23 receptor at 10 uM.
Series [12] addresses T1, GABA-A receptor; anion channel (Homo sapiens). Nature of the series: Inhibition of human GABA receptor at 10 uM. The series is classed as protein-complex assay.
Series [13] deals with Adenosine receptor A2a (Homo sapiens) (UniProt P29274). As to the kind of experiment: Inhibition of human A2A receptor at 10 uM.
Series [14] has as its target Glucocorticoid receptor (Homo sapiens) (UniProt P04150). Nature of the series: Inhibition of human glucocorticoid receptor at 10 uM.
Series [15] concerns the target Beta-1 adrenergic receptor (Homo sapiens) (UniProt P08588). As to the kind of experiment: Inhibition of human beta-1 receptor at 10 uM.
Series [16] addresses Platelet-activating factor receptor (Homo sapiens) (UniProt P25105). Nature of the series: Inhibition of human PAF receptor at 10 uM.
Series [17] deals with Adrenergic receptor alpha-2 (Homo sapiens) (UniProt P08913+P18825+P18089). Nature of the series: Inhibition of alpha-2 receptor at 10 uM. The series is classed as protein assay.
Series [18] addresses Muscarinic acetylcholine receptor (Homo sapiens) (UniProt P20309+P08173+P11229+P08172+P08912). Nature of the series: Inhibition of human M receptor at 10 uM. The class given is protein assay.
In series [19] the target is Glutamate [NMDA] receptor (Homo sapiens) (UniProt Q05586+Q12879+Q13224+O15399+O60391+Q14957+Q8TCU5). Nature of the series: Inhibition of human PCP receptor at 10 uM. The series is classed as protein-complex assay.
In series [20] the target is Polyunsaturated fatty acid lipoxygenase ALOX12 (Homo sapiens) (UniProt P18054). Nature of the series: Inhibition of 12-LO at 10 uM.
Sequence of Polyunsaturated fatty acid lipoxygenase ALOX12 (Homo sapiens) (P18054 whole entry): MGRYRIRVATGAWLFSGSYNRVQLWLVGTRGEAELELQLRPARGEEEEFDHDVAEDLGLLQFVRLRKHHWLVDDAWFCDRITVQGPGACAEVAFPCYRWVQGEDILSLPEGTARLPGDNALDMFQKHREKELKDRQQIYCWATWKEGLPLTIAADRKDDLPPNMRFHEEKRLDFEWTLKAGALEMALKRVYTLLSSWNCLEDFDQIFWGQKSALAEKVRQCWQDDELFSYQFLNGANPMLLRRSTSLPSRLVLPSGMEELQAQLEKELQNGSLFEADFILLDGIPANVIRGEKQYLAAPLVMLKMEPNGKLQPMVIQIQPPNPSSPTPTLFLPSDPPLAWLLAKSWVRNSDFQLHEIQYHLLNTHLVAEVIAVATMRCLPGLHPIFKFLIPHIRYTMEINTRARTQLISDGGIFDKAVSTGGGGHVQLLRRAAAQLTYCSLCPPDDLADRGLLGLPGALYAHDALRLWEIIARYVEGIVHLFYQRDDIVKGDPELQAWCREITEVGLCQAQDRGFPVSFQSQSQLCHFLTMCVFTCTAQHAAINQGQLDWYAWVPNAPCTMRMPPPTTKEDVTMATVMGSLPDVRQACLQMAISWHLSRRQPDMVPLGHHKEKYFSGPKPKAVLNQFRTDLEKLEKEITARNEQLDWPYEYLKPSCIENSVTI

Sequence of Beta-1 adrenergic receptor (Homo sapiens) (P08588 whole entry, looked up): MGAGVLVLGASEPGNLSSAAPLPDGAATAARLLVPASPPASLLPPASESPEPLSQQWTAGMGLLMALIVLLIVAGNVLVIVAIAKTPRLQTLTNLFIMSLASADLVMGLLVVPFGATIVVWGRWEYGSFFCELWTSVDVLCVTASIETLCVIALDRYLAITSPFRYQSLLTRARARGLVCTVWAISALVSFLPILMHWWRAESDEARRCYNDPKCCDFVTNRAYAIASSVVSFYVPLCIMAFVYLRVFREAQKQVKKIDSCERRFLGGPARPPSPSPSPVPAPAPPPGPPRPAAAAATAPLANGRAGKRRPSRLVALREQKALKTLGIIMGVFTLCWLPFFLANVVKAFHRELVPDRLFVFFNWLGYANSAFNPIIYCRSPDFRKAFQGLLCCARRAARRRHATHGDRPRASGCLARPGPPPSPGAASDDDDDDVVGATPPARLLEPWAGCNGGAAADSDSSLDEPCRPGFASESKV
Sequence of Sodium-dependent noradrenaline transporter (Homo sapiens) (P23975 whole entry): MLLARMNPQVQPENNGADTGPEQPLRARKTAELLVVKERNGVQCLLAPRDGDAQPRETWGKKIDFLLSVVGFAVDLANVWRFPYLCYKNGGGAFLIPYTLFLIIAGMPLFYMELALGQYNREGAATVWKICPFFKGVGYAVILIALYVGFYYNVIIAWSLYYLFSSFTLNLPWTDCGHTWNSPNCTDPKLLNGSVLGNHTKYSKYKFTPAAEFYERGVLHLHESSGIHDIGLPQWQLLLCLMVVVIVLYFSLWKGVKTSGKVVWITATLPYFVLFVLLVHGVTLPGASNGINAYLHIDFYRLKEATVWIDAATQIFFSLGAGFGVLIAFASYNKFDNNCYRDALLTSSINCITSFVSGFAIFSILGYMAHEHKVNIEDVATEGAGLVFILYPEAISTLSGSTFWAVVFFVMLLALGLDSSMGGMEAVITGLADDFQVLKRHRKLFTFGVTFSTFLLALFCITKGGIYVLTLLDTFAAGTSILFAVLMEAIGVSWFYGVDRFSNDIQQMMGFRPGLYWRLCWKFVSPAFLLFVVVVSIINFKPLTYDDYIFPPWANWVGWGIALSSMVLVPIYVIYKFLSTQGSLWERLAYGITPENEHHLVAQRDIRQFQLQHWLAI
Sequence of Adenosine receptor A2a (Homo sapiens) (P29274 whole entry): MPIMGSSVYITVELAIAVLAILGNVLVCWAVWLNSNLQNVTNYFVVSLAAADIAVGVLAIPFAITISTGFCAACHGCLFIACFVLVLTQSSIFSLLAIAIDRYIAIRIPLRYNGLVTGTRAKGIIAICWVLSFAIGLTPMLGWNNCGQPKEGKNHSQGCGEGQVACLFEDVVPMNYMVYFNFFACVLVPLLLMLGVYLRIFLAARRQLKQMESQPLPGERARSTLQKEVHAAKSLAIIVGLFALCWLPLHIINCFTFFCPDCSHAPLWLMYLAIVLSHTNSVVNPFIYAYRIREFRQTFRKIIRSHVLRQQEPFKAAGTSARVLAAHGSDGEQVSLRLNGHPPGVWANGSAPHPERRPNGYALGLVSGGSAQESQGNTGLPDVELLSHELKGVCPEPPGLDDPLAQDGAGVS
Sequence of Glucocorticoid receptor (Homo sapiens) (P04150 whole entry): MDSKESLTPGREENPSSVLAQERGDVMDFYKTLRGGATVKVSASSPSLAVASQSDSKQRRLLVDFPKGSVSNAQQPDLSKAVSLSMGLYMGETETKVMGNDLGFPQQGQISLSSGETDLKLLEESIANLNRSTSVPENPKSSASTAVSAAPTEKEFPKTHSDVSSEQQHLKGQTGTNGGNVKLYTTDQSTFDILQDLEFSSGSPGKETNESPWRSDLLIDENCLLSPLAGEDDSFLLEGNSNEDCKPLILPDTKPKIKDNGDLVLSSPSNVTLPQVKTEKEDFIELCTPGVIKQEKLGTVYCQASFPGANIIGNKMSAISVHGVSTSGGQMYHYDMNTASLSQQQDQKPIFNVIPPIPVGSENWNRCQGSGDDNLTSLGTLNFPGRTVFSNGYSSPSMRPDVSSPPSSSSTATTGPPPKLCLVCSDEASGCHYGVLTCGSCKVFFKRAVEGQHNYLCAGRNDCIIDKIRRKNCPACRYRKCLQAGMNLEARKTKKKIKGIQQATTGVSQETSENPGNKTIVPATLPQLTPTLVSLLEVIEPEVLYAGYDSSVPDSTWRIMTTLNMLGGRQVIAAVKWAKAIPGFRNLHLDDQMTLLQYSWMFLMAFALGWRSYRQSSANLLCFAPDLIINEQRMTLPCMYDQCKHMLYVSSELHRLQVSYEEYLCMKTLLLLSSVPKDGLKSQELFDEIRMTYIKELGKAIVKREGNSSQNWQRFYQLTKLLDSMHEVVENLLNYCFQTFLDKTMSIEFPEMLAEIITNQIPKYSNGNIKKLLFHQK
Sequence of Prostaglandin D2 receptor (Q13258 whole entry): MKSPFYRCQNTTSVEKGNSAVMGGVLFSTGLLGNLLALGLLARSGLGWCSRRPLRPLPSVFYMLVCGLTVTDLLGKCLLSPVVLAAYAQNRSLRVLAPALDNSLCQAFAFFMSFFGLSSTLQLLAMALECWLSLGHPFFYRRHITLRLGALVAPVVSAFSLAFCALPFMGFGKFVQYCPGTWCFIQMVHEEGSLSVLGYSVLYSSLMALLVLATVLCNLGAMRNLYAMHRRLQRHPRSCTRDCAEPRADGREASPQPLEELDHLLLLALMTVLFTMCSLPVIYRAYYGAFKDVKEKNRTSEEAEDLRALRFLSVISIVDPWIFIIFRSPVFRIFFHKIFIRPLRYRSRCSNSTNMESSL
Sequence of Vasopressin V1a receptor (Homo sapiens) (P37288 whole entry, looked up): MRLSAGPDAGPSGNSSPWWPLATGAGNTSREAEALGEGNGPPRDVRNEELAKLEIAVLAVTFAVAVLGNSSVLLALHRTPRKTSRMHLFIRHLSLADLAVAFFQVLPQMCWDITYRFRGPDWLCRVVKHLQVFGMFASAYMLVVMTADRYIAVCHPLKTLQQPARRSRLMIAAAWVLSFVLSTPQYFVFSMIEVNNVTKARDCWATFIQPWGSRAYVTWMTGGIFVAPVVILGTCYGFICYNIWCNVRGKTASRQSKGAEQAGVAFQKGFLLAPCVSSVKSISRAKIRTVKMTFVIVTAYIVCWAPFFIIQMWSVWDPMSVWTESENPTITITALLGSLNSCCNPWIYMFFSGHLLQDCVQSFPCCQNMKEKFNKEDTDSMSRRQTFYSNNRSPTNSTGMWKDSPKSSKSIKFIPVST
Sequence of Polyunsaturated fatty acid lipoxygenase ALOX15 (Homo sapiens) (P16050 whole entry): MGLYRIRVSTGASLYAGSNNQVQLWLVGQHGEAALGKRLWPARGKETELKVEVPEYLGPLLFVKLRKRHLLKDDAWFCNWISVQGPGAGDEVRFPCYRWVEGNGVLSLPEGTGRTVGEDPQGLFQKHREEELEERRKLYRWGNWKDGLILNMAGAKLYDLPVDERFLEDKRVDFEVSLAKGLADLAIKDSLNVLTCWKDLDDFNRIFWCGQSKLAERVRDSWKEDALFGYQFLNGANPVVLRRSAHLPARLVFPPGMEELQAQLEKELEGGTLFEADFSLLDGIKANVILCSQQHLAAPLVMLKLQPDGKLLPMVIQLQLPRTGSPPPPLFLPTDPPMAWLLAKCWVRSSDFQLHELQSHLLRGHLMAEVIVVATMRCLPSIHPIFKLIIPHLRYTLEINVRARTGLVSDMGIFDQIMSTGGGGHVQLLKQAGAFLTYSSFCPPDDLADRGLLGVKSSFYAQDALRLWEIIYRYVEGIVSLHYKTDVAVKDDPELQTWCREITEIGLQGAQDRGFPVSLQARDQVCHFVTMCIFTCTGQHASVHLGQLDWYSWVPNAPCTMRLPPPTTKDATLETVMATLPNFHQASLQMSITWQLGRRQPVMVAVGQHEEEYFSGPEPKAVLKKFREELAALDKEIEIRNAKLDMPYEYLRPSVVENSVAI
Sequence of Cholecystokinin receptor type A (Homo sapiens) (P32238 whole entry): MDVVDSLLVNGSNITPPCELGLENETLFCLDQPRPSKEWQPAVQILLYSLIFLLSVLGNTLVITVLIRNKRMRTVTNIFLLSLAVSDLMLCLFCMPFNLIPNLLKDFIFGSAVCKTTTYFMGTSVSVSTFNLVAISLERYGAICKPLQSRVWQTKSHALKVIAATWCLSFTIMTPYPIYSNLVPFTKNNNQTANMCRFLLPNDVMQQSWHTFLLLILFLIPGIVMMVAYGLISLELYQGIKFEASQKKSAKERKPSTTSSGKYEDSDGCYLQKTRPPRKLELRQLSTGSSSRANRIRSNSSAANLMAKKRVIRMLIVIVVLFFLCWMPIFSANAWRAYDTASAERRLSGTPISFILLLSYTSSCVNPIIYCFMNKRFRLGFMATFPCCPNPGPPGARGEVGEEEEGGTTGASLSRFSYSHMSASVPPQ

`O=C(O)COc1ccc(Br)cc1C(=O)c1cnn(-c2ccccc2)c1`: the inhibition in series [1] is less than 30%; in series [2], less than 30%; in series [3], less than 20%; in [6] it was less than 30%; in [7], less than 30%; in series [8], less than 30%. The inhibition in series [9], in series [10], in series [11], in [12], in series [13] and in series [14] was less than 30% throughout. Also, the inhibition in series [15] is less than 30%; in series [16] it was less than 30%; in [17], less than 30%; in series [18] it was less than 30%; in [19], less than 30%; in series [20] it was less than 20%. Besides, the bioavailability in [4] is 84%. In [5], this molecule returned an IC50 of more than 100 µM. In the series filed under Homo sapiens, the Stability is 93%.
